Publication PMC7944402, “Resin-acid derivatives bind to multiple sites on the voltage-sensor domain of the Shaker potassium channel” (The Journal of General Physiology, 2021)
“And” between values parts separate entries of the source, which are not always exact repeats. Equal entries are not always repeated.

Tests used:
Assay type in all cases: cell-based
[1] = biological target: T1, Shaker KV channel with the 2R motif (M356R/A359R) (Drosophila melanogaster, UniProt P08510, A359R/DEL6-46/M356R); assay: Two-electrode voltage clamp in Xenopus oocytes: 2R motif channel
T1 construct: expressed in transfected cells; host or cells: Xenopus laevis oocytes (RNA injection)
T1 sequence (P08510 other isoform, or with tags, fused parts or gaps DEL6-46/M356R/A359R): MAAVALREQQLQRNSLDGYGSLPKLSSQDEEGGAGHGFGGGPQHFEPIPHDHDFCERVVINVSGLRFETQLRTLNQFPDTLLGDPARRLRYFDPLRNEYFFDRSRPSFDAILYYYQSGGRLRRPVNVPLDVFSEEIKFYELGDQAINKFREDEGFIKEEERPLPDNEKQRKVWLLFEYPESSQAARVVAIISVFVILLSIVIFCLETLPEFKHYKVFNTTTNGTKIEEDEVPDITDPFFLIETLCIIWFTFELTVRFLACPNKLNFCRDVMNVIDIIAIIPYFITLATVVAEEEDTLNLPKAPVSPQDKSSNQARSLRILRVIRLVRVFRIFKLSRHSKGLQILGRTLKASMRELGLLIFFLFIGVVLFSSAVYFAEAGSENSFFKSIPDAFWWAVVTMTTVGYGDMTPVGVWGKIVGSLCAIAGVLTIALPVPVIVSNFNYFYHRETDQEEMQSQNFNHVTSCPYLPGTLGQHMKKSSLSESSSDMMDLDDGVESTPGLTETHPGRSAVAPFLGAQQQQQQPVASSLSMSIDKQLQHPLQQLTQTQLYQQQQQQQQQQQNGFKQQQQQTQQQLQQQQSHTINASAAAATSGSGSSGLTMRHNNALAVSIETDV
Excerpt: (§1) The Shaker H4 channel (GenBank accession no. NM_167595.3; [Kamb et al., 1987]), with removed N-type inactivation due to a Δ6-46 deletion (ShH4IR, in Bluescript II KS(+) plasmid; [Hoshi et al., 1990]), is referred to as the WT Shaker KV channel. […] Therefore, we specifically refer to the two added arginines just outside S4 (M356R/A359R) as the 2R motif. Mutations were introduced with site-directed mutagenesis and verified with sequencing as described previously ([Börjesson et al., 2010]). RNA injection and oocyte handling were performed as before ([Börjesson et al., 2010]; [Ottosson et al., 2015]). All animal experiments were approved by the Linköping’s local Animal Care and Use Committee.
(§2) Electrophysiological experiments were made 1–6 d after RNA injection. K^+ currents were measured with the two-electrode voltage-clamp technique (GeneClamp 500B amplifier; Axon Instruments) as described previously ([Ottosson et al., 2015]; [Silverå Ejneby et al., 2018]). The amplifier’s leak compensation was used, and the currents were low-pass filtered at 5 kHz. The control solution contained (in mM) 88 NaCl, 1 KCl, 15 HEPES, 0.4 CaCl2, and 0.8 MgCl2, and pH was set with NaOH. All experiments were made at room temperature (20°C–23°C). The holding potential was set to −80 mV (or −100 mV if the mutant was not fully closed at −80 mV).
(§3) Stock solutions were stored at −20°C and diluted in control solution just before experiments. The test solution was added to the oocyte bath manually with a syringe. […] To make sure all Wu50 molecules were negatively charged, the pH of the control solution was set to 9.0 before the experiments.
(§4) The conductance, G(V), was calculated as G(V)=I/(V−VK), (1) where I is the steady-state current measured at the end of each test-voltage sweep (100 ms after onset; Clampfit 10.5; Molecular Devices), V is the absolute membrane voltage, and VK is the reversal potential for K^+ ions (set to −80 mV). The conductance was fitted with a Boltzmann equation (GraphPad Prism 5; GraphPad Software, Inc.) GK(V)=GMAX/{1+exp[(V½−V)/s]}, (2) where GMAX is the amplitude (maximal conductance) of the curve, V is the absolute membrane voltage, V1/2 is the midpoint, and s is the slope. The resin-acid–induced G(V) shift was calculated as V1/2 (compound) − V1/2 (control). The relative change in GMAX was calculated as GMAX (compound) / GMAX (control). The concentration dependence for the G(V) shifts was calculated as ΔV= ΔVMAX/(1 +EC50/c), (3) where ΔV is the voltage shift, ΔVMAX is the voltage shift at saturating concentration, c is the concentration of the tested compound, and EC50 is the concentration at which half-maximum response occurs.

[2] = biological target: T2, WT Shaker KV channel (ShH4IR) (Drosophila melanogaster, UniProt P08510, DEL6-46); assay: Two-electrode voltage clamp of Shaker KV channels expressed in Xenopus laevis oocytes: WT
T2 construct: expressed in transfected cells; host or cells: Xenopus laevis oocytes (RNA injection)
T2 sequence (P08510 other isoform, or with tags, fused parts or gaps DEL6-46): as the sequence (P08510 other isoform, or with tags, fused parts or gaps DEL6-46/M356R/A359R) above, with R315M, R318A counted along it
Excerpt: as §1, §2, §3, §4

[3] = biological target: T3, Shaker KV channel R362Q/W454A (Drosophila melanogaster, UniProt P08510, DEL6-46/R362Q/W454A); assay: Two-electrode voltage clamp in Xenopus oocytes: R362Q/W454A; settings: 100 μM, pH 9.0, R362Q/W454A
T3 construct: expressed in transfected cells; host or cells: Xenopus laevis oocytes (RNA injection)
T3 sequence (P08510 with tags, fused parts or gaps DEL6-46/R362Q/W454A): as the sequence (P08510 other isoform, or with tags, fused parts or gaps DEL6-46/M356R/A359R) above, with R315M, R318A, R321Q, W413A counted along it
Excerpt: (§5) The Shaker H4 channel (GenBank accession no. NM_167595.3; [Kamb et al., 1987]), with removed N-type inactivation due to a Δ6-46 deletion (ShH4IR, in Bluescript II KS(+) plasmid; [Hoshi et al., 1990]), is referred to as the WT Shaker KV channel. Addition of two positively charged arginines (M356R/A359R) at the extracellular top of the voltage sensor increases the effect of charged lipophilic compounds ([Ottosson et al., 2014], [2015], [2017]). […] However, for the resin-acid derivatives studied in the present investigation, R362 reduced the effect. Therefore, we specifically refer to the two added arginines just outside S4 (M356R/A359R) as the 2R motif. […]
(§6) Electrophysiological experiments were made 1–6 d after RNA injection. K^+ currents were measured with the two-electrode voltage-clamp technique (GeneClamp 500B amplifier; Axon Instruments) as described previously ([Ottosson et al., 2015]; [Silverå Ejneby et al., 2018]). […]
(§7) The conductance, G(V), was calculated as G(V)=I/(V−VK), (1) where I is the steady-state current measured at the end of each test-voltage sweep (100 ms after onset; Clampfit 10.5; Molecular Devices), V is the absolute membrane voltage, and VK is the reversal potential for K^+ ions (set to −80 mV). […] The resin-acid–induced G(V) shift was calculated as V1/2 (compound) − V1/2 (control). The relative change in GMAX was calculated as GMAX (compound) / GMAX (control). […]

[4] = biological target: T4, Shaker KV channel M356R/A359R/R362Q (Drosophila melanogaster, UniProt P08510, A359R/DEL6-46/M356R/R362Q); assay: Two-electrode voltage clamp in Xenopus oocytes: 2R motif/R362Q
T4 construct: expressed in transfected cells; host or cells: Xenopus laevis oocytes (RNA injection)
T4 sequence (P08510 other isoform, or with tags, fused parts or gaps DEL6-46/M356R/A359R/R362Q): as the sequence (P08510 other isoform, or with tags, fused parts or gaps DEL6-46/M356R/A359R) above, with R321Q counted along it
Excerpt: The Shaker H4 channel (GenBank accession no. NM_167595.3; [Kamb et al., 1987]), with removed N-type inactivation due to a Δ6-46 deletion (ShH4IR, in Bluescript II KS(+) plasmid; [Hoshi et al., 1990]), is referred to as the WT Shaker KV channel. Addition of two positively charged arginines (M356R/A359R) at the extracellular top of the voltage sensor increases the effect of charged lipophilic compounds ([Ottosson et al., 2014], [2015], [2017]). […] However, for the resin-acid derivatives studied in the present investigation, R362 reduced the effect. Therefore, we specifically refer to the two added arginines just outside S4 (M356R/A359R) as the 2R motif. Mutations were introduced with site-directed mutagenesis and verified with sequencing as described previously ([Börjesson et al., 2010]). RNA injection and oocyte handling were performed as before ([Börjesson et al., 2010]; [Ottosson et al., 2015]). All animal experiments were approved by the Linköping’s local Animal Care and Use Committee.
as §2
as §3, with “the experiments. This pH change had only small effects on channel kinetics and the G(V) relation.” for “the experiments.”
as §4, with “The conductance was fitted with a Boltzmann equation (GraphPad Prism 5; GraphPad Software, Inc.) GK(V)=GMAX/{1+exp[(V½−V)/s]}, (2) where GMAX is the amplitude (maximal conductance) of the curve, V is the absolute membrane voltage, V1/2 is the midpoint, and s is the slope.” left out

[5] = biological target: T5, Shaker KV channel M356R/A359R/R362Q/W454A (Drosophila melanogaster, UniProt P08510, A359R/DEL6-46/M356R/R362Q/W454A); assay: Two-electrode voltage clamp in Xenopus oocytes: 2R motif/R362Q/W454A; settings: 100 μM, pH 9.0, M356R/A359R/R362Q/W454A
T5 construct: expressed in transfected cells; host or cells: Xenopus laevis oocytes (RNA injection)
T5 sequence (P08510 with tags, fused parts or gaps DEL6-46/M356R/A359R/R362Q/W454A): as the sequence (P08510 other isoform, or with tags, fused parts or gaps DEL6-46/M356R/A359R) above, with R321Q, W413A counted along it
Excerpt: as §5, §6, §7

[6] = 100 μM, pH 9.0, M356R/A359R (=2R)
[7] = 100 μM, pH 9.0, M356R/A359R/R362Q

C[C@@]1(C(=O)O)CCC[C@]2(C)c3cc(Cl)c(Cl)c(Cl)c3CC[C@@H]12 [Wu50]
G(V) shift, representative recording (Fig. 1 D) ([1]; 100 µM, pH 9.0, 2R motif): −40.7 mV
GMAX (rel.) [1, 6]: 1.58 rel.
ΔVG(V) (G(V) shift) [1, 6]: −40.0 ± 2.7 mV and -40.0 mV
Increase of the maximum G(V) shift by the 2R motif ([1]; 2R motif versus WT, Wu50 pH 9.0, Wu161 and Wu181 pH 7.4): 57%
ΔVMAX (maximum G(V) shift) ([1]; 2R motif, pH 9.0, concentration-response (Eq. 3)): −56.5 ± 2.6 mV
EC50 ([1]; 2R motif, pH 9.0, concentration-response (Eq. 3), read-out: EC50 of the G(V) shift (apparent affinity)): 30 ± 5 µM
Increase of the G(V) shift by the 2R motif, in the negative direction ([1]; magnitude depending on the background mutations, 100 μM, pH 9.0): 4–32 mV
ΔVG(V) (G(V) shift) ([2]; 100 μM, pH 9.0, WT): −25.5 ± 1.4 mV and -25.5 mV
GMAX (rel.) ([2]; 100 μM, pH 9.0, WT, GMAX (compound)/GMAX (control)): 1.36 rel.
EC50 ([2]; WT, pH 9.0, concentration-response (Eq. 3), read-out: EC50 of the G(V) shift (apparent affinity)): 29.1 ± 3.5 µM
GMAX (rel.) [3]: 1.28 rel.
ΔVG(V) (G(V) shift) [3]: −41.0 ± 4.4 mV and -41.0 mV
G(V) shift, representative recording (Fig. 4 B) ([4]; 100 µM, pH 9.0, 2R motif/R362Q): −59.0 mV
GMAX (rel.) [4, 7]: 1.93 rel.
ΔVG(V) (G(V) shift) [4, 7]: −54.0 ± 2.3 mV and -54.0 mV
GMAX (rel.) [5]: 1.50 rel.
ΔVG(V) (G(V) shift) [5]: −56.6 ± 5.8 mV and -56.6 mV
